Measured values taken from US8686044B2, “Amide derivative, pest control agent containing the amide derivative, and use of the amide derivative” (Mitsui Chemicals Agro, Inc., priority 2008, dated 2014).

Key:
Plutella xylostella = test: Pesticidal test against Plutella xylostella (cabbage leaf dip); assay type: in vivo; conditions: foliar, 144 h, 2-stage larvae, examined after 6 days, 25° C., read-out: pesticidal rate; for pest or weed control at 1 ppm: concentration 1 ppm; for pest or weed control at 10 ppm: concentration 10 ppm
Protocol: (§1) Pesticidal Test against Plutella xylostella A piece of a cabbage leaf was immersed for 30 seconds in a chemical solution in which a test compound had been prepared at a predetermined concentration, and air-dried, and then put into a 7 cm polyethylene cup having a filter paper laid on the bottom thereof, and 2-stage larvae of Plutella xylostella were released. They were left to stand in a thermostatic chamber at 25° C., and the numbers of the living pests and the dead pests were examined after 6 days. The test was carried out with five larvae per group in two replicates. Further, the above compound (A) was used as a comparative compound.

Spodoptera litura = test: Pesticidal test against Spodoptera litura (cabbage leaf dip); assay type: in vivo; conditions: foliar, 144 h, 2-stage larvae, examined after 6 days, 25° C., read-out: pesticidal rate; for pest or weed control at 1 ppm: concentration 1 ppm; for pest or weed control at 10 ppm: concentration 10 ppm
Protocol: as §1, with “Spodoptera litura” for “Plutella xylostella”, “following” for “above”, “(A) disclosed in the pamphlet of International Publication WO 2005/073165” for “(A)”

SMILES | pest or weed control at 1 ppm (Plutella xylostella) [%] | pest or weed control at 1 ppm (Spodoptera litura) [%] | pest or weed control at 10 ppm (Plutella xylostella) [%] | pest or weed control at 10 ppm (Spodoptera litura) [%]
CN(C(=O)c1c(F)cccc1F)c1cccc(C(=O)Nc2c(I)cc(C(F)(C(F)(F)F)C(F)(F)C(F)(F)F)cc2I)c1 (centres unmarked) [7-80] | ≥ 70 | ≥ 70 |  | 
CN(C(=O)c1ccccc1F)c1cccc(C(=O)Nc2c(I)cc(C(F)(C(F)(F)F)C(F)(F)C(F)(F)F)cc2I)c1 (centres unmarked) [7-72] | ≥ 70 | ≥ 70 |  | 
O=C(Nc1cccc(C(=O)Nc2c(Br)cc(C(F)(F)C(F)(F)F)cc2C(F)(F)F)c1)c1ccccc1 [6-5913, 3-benzamide-N-(2-bromo-4-(perfluoroethyl)-6-(trifluoromethyl)phenyl)benzamide] |  |  | ≥ 70 | ≥ 70
CN(C(=O)c1ccc(C#N)cc1)c1cccc(C(=O)Nc2c(Cl)cc(C(F)(C(F)(F)F)C(F)(F)F)cc2C(F)(F)F)c1 [7-132] | ≥ 70 | ≥ 70 |  | 
CN(C(=O)c1cccnc1Cl)c1cccc(C(=O)Nc2c(Cl)cc(C(F)(C(F)(F)F)C(F)(F)F)cc2C(F)(F)F)c1 [7-147] | ≥ 70 | ≥ 70 |  | 
CN(C(=O)c1ccc(C#N)cc1)c1cccc(C(=O)Nc2c(I)cc(C(F)(C(F)(F)F)C(F)(F)C(F)(F)F)cc2I)c1 (centres unmarked) [7-79] | ≥ 70 | ≥ 70 |  | 
N#Cc1ccc(C(=O)Nc2c(Cl)cc(C(F)(C(F)(F)F)C(F)(F)F)cc2C(F)(F)F)cc1NC(=O)c1ccc(Cl)nc1 [1-513] | ≥ 70 | ≥ 70 |  | 
CN(C(=O)c1ccc(S(C)(=O)=O)cc1)c1cccc(C(=O)Nc2c(Br)cc(C(F)(C(F)(F)F)C(F)(F)F)cc2C(F)(F)F)c1 [7-5908] |  |  | ≥ 70 | ≥ 70
CN(C(=O)c1ccccc1)c1cccc(C(=O)Nc2c(C(F)(F)F)cc(C(F)(C(F)(F)F)C(F)(F)F)cc2C(F)(F)F)c1 [7-804] |  | ≥ 70 | ≥ 70 | 
CN(C(=O)c1c(F)cccc1F)c1cccc(C(=O)Nc2c(Br)cc(C(F)(C(F)(F)F)C(F)(F)F)cc2C(F)(F)F)c1 [7-290] | ≥ 70 | ≥ 70 |  | 
O=C(Nc1cccc(C(=O)Nc2c(I)cc(C(F)(C(F)(F)F)C(F)(F)F)cc2C(F)(F)F)c1)c1ccc(Cl)nc1 [6-467] | ≥ 70 | ≥ 70 |  | 
CN(C(=O)c1cccc(NC(=O)c2ccccc2)c1)c1c(C(F)(F)F)cc(C(F)(C(F)(F)F)C(F)(F)F)cc1C(F)(F)F [8-804] |  | ≥ 70 | ≥ 70 | 
N#Cc1ccc(C(=O)Nc2cccc(C(=O)Nc3c(Br)cc(C(F)(C(F)(F)F)C(F)(F)F)cc3C(F)(F)F)c2)cc1 [6-289] | ≥ 70 | ≥ 70 |  | 
CN(C(=O)c1ccccc1)c1cccc(C(=O)Nc2c(Br)cc(C(F)(F)C(F)(F)F)cc2C(F)(F)F)c1 [7-5911] |  |  | ≥ 70 | ≥ 70
N#Cc1cccc(C(=O)Nc2cccc(C(=O)Nc3c(Br)cc(C(F)(C(F)(F)F)C(F)(F)F)cc3C(F)(F)F)c2)c1 [6-288] | ≥ 70 | ≥ 70 |  | 
CN(C(=O)c1ccc(Cl)nc1)c1cccc(C(=O)Nc2c(I)cc(C(F)(C(F)(F)F)C(F)(F)C(F)(F)F)cc2I)c1 (centres unmarked) [7-93] | ≥ 70 | ≥ 70 |  | 
O=C(Nc1cccc(C(=O)Nc2c(Cl)cc(C(F)(C(F)(F)F)C(F)(F)F)cc2C(F)(F)F)c1)c1ccccc1 [6-111] | ≥ 70 | ≥ 70 |  | 
CN(C(=O)c1ccc(F)cc1)c1cccc(C(=O)Nc2c(I)cc(C(F)(C(F)(F)F)C(F)(F)C(F)(F)F)cc2I)c1 (centres unmarked) [7-5905] | ≥ 70 | ≥ 70 |  | 
CN(C(=O)c1ccccc1)c1cccc(C(=O)Nc2c(Br)cc(C(F)(C(F)(F)F)C(F)(F)C(F)(F)F)cc2Br)c1 (centres unmarked) [7-38] | ≥ 70 | ≥ 70 |  | 
O=C(Nc1cccc(C(=O)Nc2c(C(F)(F)F)cc(C(F)(C(F)(F)F)C(F)(F)F)cc2C(F)(F)F)c1)c1ccccc1 [6-804] | ≥ 70 | ≥ 70 |  | 
CN(C(=O)c1ccccc1F)c1nc(C(=O)Nc2c(Br)cc(C(F)(C(F)(F)F)C(F)(F)F)cc2C(F)(F)F)cs1 [27-628, N-(2-bromo-4-(perfluoropropan-2-yl)-6-(trifluoromethyl)phenyl)-2-(2-fluoro-N-methylbenzamide)thiazole-4-carboxamide] |  |  | ≥ 70 | ≥ 70
CN(C(=O)c1cccc(NC(=O)c2cccc(C#N)c2)c1)c1c(Br)cc(C(F)(C(F)(F)F)C(F)(F)F)cc1C(F)(F)F [8-288] | ≥ 70 | ≥ 70 |  | 
CN(C(=O)c1ccccc1)c1cccc(C(=O)Nc2c(I)cc(C(F)(C(F)(F)F)C(F)(F)C(F)(F)F)cc2I)c1 (centres unmarked) [7-71] | ≥ 70 | ≥ 70 |  | 

SMILES | pest or weed control at 1 ppm (Plutella xylostella) [%] | pest or weed control at 1 ppm (Spodoptera litura) [%] | pest or weed control at 10 ppm (Plutella xylostella) [%] | pest or weed control at 10 ppm (Spodoptera litura) [%]
CN(C(=O)c1cccc(C#N)c1)c1cccc(C(=O)Nc2c(I)cc(C(F)(C(F)(F)F)C(F)(F)C(F)(F)F)cc2I)c1 (centres unmarked) [7-78] | ≥ 70 | ≥ 70 |  | 
N#Cc1ccc(C(=O)Nc2cccc(C(=O)Nc3c(C(F)(F)F)cc(C(F)(C(F)(F)F)C(F)(F)F)cc3C(F)(F)F)c2)cc1 [6-825] | ≥ 70 | ≥ 70 |  | 
N#Cc1ccc(C(=O)Nc2c(Cl)cc(C(F)(C(F)(F)F)C(F)(F)F)cc2C(F)(F)F)cc1NC(=O)c1ccccc1 [1-470] |  | ≥ 70 | ≥ 70 | 
CN(C(=O)c1ccc(F)cc1)c1cccc(C(=O)Nc2c(Br)cc(C(F)(C(F)(F)F)C(F)(F)F)cc2C(F)(F)F)c1 [7-271] | ≥ 70 | ≥ 70 |  | 
CN(C(=O)c1ccc(C#N)cc1)c1cccc(C(=O)Nc2c(Cl)cc(C(F)(C(F)(F)F)C(F)(F)F)cc2Cl)c1F [7-969] | ≥ 70 | ≥ 70 |  | 
O=C(Nc1c(I)cc(C(F)(C(F)(F)F)C(F)(F)F)cc1C(F)(F)F)c1cccc(NC(=O)c2ccc([N+](=O)[O-])cc2Cl)c1 [6-454] |  |  | ≥ 70 | ≥ 70
O=C(Nc1cccc(C(=O)Nc2c(Br)cc(C(F)(C(F)(F)F)C(F)(F)C(F)(F)F)cc2Br)c1)c1ccc(Cl)nc1 (centres unmarked) [6-60] |  | ≥ 70 | ≥ 70 | 
CN(C(=O)c1cccc(C#N)c1)c1cccc(C(=O)Nc2c(Br)cc(C(F)(C(F)(F)F)C(F)(F)C(F)(F)F)cc2Br)c1 (centres unmarked) [7-45] | ≥ 70 | ≥ 70 |  | 
N#Cc1ccc(C(=O)Nc2cccc(C(=O)Nc3c(Br)cc(C(F)(C(F)(F)F)C(F)(F)F)cc3C(F)(F)F)c2)c(F)c1 [6-300] | ≥ 70 | ≥ 70 |  | 
O=C(Nc1cccc(C(=O)Nc2c(Cl)cc(C(F)(C(F)(F)F)C(F)(F)F)cc2Br)c1F)c1ccccc1 [6-5902] |  | ≥ 70 |  | 
CN(C(=O)c1cccnc1Cl)c1cc(C(=O)Nc2c(Br)cc(C(F)(C(F)(F)F)C(F)(F)F)cc2C(F)(F)F)ccc1F [7-3384] | ≥ 70 | ≥ 70 |  | 
CN(C(=O)c1ccc(C#N)cc1F)c1cccc(C(=O)Nc2c(Br)cc(C(F)(C(F)(F)F)C(F)(F)F)cc2C(F)(F)F)c1 [7-300] | ≥ 70 | ≥ 70 |  | 
CN(C(=O)c1ccccc1F)c1cccc(C(=O)Nc2c(I)cc(C(F)(C(F)(F)F)C(F)(F)F)cc2C(F)(F)F)c1 [7-425] | ≥ 70 | ≥ 70 |  | 
O=C(Nc1cccc(C(=O)Nc2c(Br)cc(C(F)(C(F)(F)F)C(F)(F)C(F)(F)F)cc2Br)c1)c1ccccc1 (centres unmarked) [6-38] | ≥ 70 | ≥ 70 |  | 
CN(C(=O)c1cccc(NC(=O)c2cccc(C#N)c2)c1)c1c(C(F)(F)F)cc(C(F)(C(F)(F)F)C(F)(F)F)cc1C(F)(F)F [8-824] | ≥ 70 | ≥ 70 |  | 
O=C(Nc1cccc(C(=O)Nc2c(I)cc(C(F)(C(F)(F)F)C(F)(F)F)cc2C(F)(F)F)c1F)c1ccc(F)cc1Cl [6-1755] | ≥ 70 | ≥ 70 |  | 
O=C(Nc1cccc(C(=O)Nc2c(I)cc(C(F)(C(F)(F)F)C(F)(F)C(F)(F)F)cc2I)c1)c1ccc(Cl)nc1 (centres unmarked) [6-93] |  | ≥ 70 | ≥ 70 | 
CN(C(=O)c1cccc(NC(=O)c2ccccc2)c1)c1c(Br)cc(C(F)(C(F)(F)F)C(F)(F)F)cc1C(F)(F)F [8-268] | ≥ 70 | ≥ 70 |  | 
CN(C(=O)c1cccnc1Cl)c1nc(C(=O)Nc2c(Br)cc(C(F)(C(F)(F)F)C(F)(F)F)cc2C(F)(F)F)cs1 [27-663] |  | ≥ 70 | ≥ 70 | 
CS(=O)(=O)c1ccc(C(=O)Nc2cccc(C(=O)Nc3c(I)cc(C(F)(C(F)(F)F)C(F)(F)F)cc3C(F)(F)F)c2)c(Cl)c1 [6-5912] | ≥ 70 | ≥ 70 |  | 
N#Cc1ccc(C(=O)Nc2cccc(C(=O)Nc3c(Br)cc(C(F)(C(F)(F)F)C(F)(F)C(F)(F)F)cc3Br)c2)cc1 (centres unmarked) [6-46] | ≥ 70 | ≥ 70 |  | 
O=C(Nc1c(I)cc(C(F)(C(F)(F)F)C(F)(F)F)cc1C(F)(F)F)c1cccc(NC(=O)c2ccc(Cl)cc2Cl)c1 [6-448] |  | ≥ 70 | ≥ 70 | 
